The record followed here is patent US5525596A, “Absorption enhancer/solubilizer combination for improved bioavailability of a zwitterionic compound” (Merck & Co., Inc., priority 1994, dated 1996).

Read-outs that look alike come from different tables or passages of the source.

Data set [1] is described as follows: Absorption of solid formulations (powders, tablets, beads) from unligated sections of the jejunum of anesthetized rats (bile collection). The data set is classed as in vivo. Particulars: rat. The method, then:
(§1) Solutions of palmitoyl carnitine, β-cyclodextrin and an [R-(R*,R*)]-3-[(2-hydroxypropyl)amino]-3-methyl-N-[2,3,4,5-tetrahydro-2-oxo-1-[[2'-(H-tetrazol-5-yl)[1,1'-biphenyl]-4-yl]methyl]-1H-1-benzazepin-3-yl]butanamide having the following structure: [drawing 1] hereinafter referred to as [R-(R*,R*)]-3-[(2-hydroxypropyl)amino]-3-methyl-N-[2,3,4,5-tetrahydro-2-oxo-1-[[2'-(H-tetrazol-5-yl)[1,1'-biphenyl]-4-yl]methyl]-1H-1-benzazepin-3-yl]butanamide were prepared such that [R-(R*,R*)]-3-[(2-hydroxypropyl)amino]-3-methyl-N-[2,3,4,5-tetrahydro-2-oxo-1-[[2'-(H-tetrazol-5-yl)[1,1'-biphenyl]-4-yl]methyl]-1H-1-benzazepin-3-yl]butanamide was maintained at 2 mg/ml. All solutions were prepared in Krebs-Henseleit buffer at Ph 7.4. The solutions were administered to ligated sections of the jejunum of anesthetized rats. […] The bile was collected in 15 minute intervals for 3.5 hours and analyzed for [R-(R*,R*)]-3-[(2-hydroxypropyl)amino]-3-methyl-N-[2,3,4,5-tetrahydro-2-oxo-1-[[2'-(H-tetrazol-5-yl)[1,1'-biphenyl]-4-yl]methyl]-1H-1-benzazepin-3-yl]butanamide content. From the bile volume, the total amount of drug eliminated could be calculated. After an IV dose, 92% of the drug is found in the bile. Therefore all value were divided by 0.92 to give true absorption values. These values are given in table 1, along with standard deviations which were observed.
Powders were prepared so as to contain in each dose, 2 mg/kg of [R-(R*,R*)]-3-[(2-hydroxypropyl)amino]-3-methyl-N-[2,3,4,5-tetrahydro-2-oxo-1-[[2'-(H-tetrazol-5-yl)[1,1'-biphenyl]-4-yl]methyl]-1H-1-benzazepin-3-yl]butanamide, 0-10 mg/kg palmitoyl carnitine chloride, 0-15 mg/kg β-cyclodextrin and microcrystalline cellulose. The powders were administered to unligated sections of the jujunum of anesthetized rats. Bile was collected and the absorption of [R-(R*,R*)]-3-[(2-hydroxypropyl)amino]-3-methyl-N-[2,3,4,5-tetrahydro-2-oxo-1-[[2'-(H-tetrazol-5-yl)[1,1'-biphenyl]-4-yl]methyl]-1H-1-benzazepin-3-yl]butanamide was determined as in Example 1. The results of these studies are provided in Table 2, along with observed standard deviations.
Lyophilized preparations of [R-(R*,R*)]-3-[(2-hydroxypropyl)amino]-3-methyl-N-[2,3,4,5-tetrahydro-2-oxo-1-[[2'-(H-tetrazol-5-yl)[1,1'-biphenyl]-4-yl]methyl]-1H-1-benzazepin-3-yl]butanamide were prepared from solutions containing 2 mg/ml of [R-(R*,R*)]-3-[(2-hydroxypropyl)amino]-3-methyl-N-[2,3,4,5-tetrahydro-2-oxo-1-[[2'-(H-tetrazol-5-yl)[1,1'-biphenyl]-4-yl]methyl]-1H-1-benzazepin-3-yl]butanamide and 15 mg/ml of β-cyclodextrin or 20 mg/ml hydroxypropyl-β-cyclodextrin. The lyophilized preparations were mixed with palmitoyl carnitine chloride and microcrystalline cellulose and compressed into tablets. The tablets contained 2 mg/kg of [R-(R*,R*)]-3-[(2-hydroxypropyl)amino]-3 -methyl -N-[2,3,4,5,-tetrahydro-2-oxo-1-[[2'-(H-tetrazol-5-yl)[1,1'biphenyl]-4-yl]methyl-1H1-benzazepin-3-yl]butanamide and 10 mg/kg palmitoyl carnitine chloride. The tablets were administered to the unligated sections of the jejunum of anesthetized rats. Bile was collected and the absorption of [R-(R*,R*)]-3-[(2-hydroxypropyl) amino]-3 -methyl -N- [2,3,4,5 -tetrahydro-2-oxo-1-[[2'-(H-tetrazol-5-yl)[1,1'-biphenyl]-4-yl]methyl]-1H- 1-benzazepin-3-yl]butanamide determined as in Example 1. The percentage absorption of [R-(R*,R*)]-3-[(2-hydroxypropyl)amino]-3-methyl-N-[2,3,4,5-tetrahydro-2-oxo-1-[[2'-(H-tetrazol-5-yl)[1,1'-biphenyl]-4-yl]methyl]-1H-1-benzazepin-3-yl]butanamide from the lyophilized formulation containing β-cyclodextrinwas 28.2±18.3 and from the hydroxpropyl-β-cyclodextrin, 7.5±6.2.
Fifteen parts of water were added to a mixture of [R-(R*,R*)]-3-[(2-hydroxypropyl)amino]-3-methyl-N-[2,3,4,5-tetrahydro-2-oxo-1-[[2'-(H-tetrazol-5-yl)[1,1'-biphenyl]-4-methyl]-1H-1-benzazepin-3-yl]butanamide, β-cyclodextrin, palmitoyl carnitine chloride, micro-crystalline cellulose and starct (2:15:10:15:10). The preparation was extruded through a screen ([…]) and spheronized. […]

Data set [2] is described as follows: Jejunal absorption of drug solutions from ligated sections of the jejunum of anesthetized rats (bile collection). Particulars: rat, pH 7.4, solution 2 mg/ml drug, read-out: % of Dose Absorbed Relative to IV (+/- s.d.). The data set is classed as in vivo. How it is done: as §1
Data set [3] is described as follows: Biliary excretion in rats. The format is in vivo, rat. How it is done: as §1
Data set [4] can be described thus: Plasma/blood exposure after administration of compressed tablets to the duodenum of dogs. The format is in vivo, dog. Particulars: tablet, 1 mg/kg drug, 10 mg/kg palmitoyl carnitine chloride, four hours. How it is done: Compressed tablets were prepared with and without 112 mg β-cyclodextrin (7.5 mg/kg), containing 15 mg of [R-(R*,R*)]-3-[(2-hydroxypropyl)amino]-3-methyl-N-[2,3,4,5-tetrahydro-2-oxo-1[[2'-(H-tetrazol-5-yl)[1,1'-biphenyl]-4-yl]methyl]-1H-1-benzazepin-3-yl]butanamide (1 mg/kg) and 150 mg palmitoyl carnitine chloride (10 mg/kg) in a tablet matrix containing 203 mg microcrystalline cellulose, 100 mg lactose, 20 mg corn starch and 2 mg magnesium stearate. The tablets were administered to the duodenum of dogs through a surgically prepared fistual. Serial blood samples were taken from the dogs for four hours after dosing and analyzed for [R-(R*,R*)]-3-[(2-hydroxypropyl)amino]-3-methyl-N -[2,3,4,5-tetra-hydro-2-oxo-1-[[2'-(H-tetrazol-5-yl)[1,1'-biphenyl]-4-yl]methyl]-1H-1-benzazepin-3-yl]butanamide. The results given as resulting area under [R-(R*,R*)]-3-[(2-hydroxy-propyl)amino] -3-methyl-N-[2,3,4,5-tetrahydro-2-oxo- 1-[[2'-(H-tetrazol-5-yl)[1,1'-biphenyl]-4-yl]methyl]-1H-1-benzazepin-3-yl]butanamide concentration-time curve ± standard deviations, are 361±168 ng min/ml in the absence of β-cyclodextrin and […] in the presence of β-cyclodextrin.

Turning to `C[C@@H](O)CNC(C)(C)CC(=O)N[C@@H]1CCc2ccccc2N(Cc2ccc(-c3ccccc3-c3nnn[nH]3)cc2)C1=O` [[R-(R*,R*)]-3-[(2-hydroxypropyl)amino]-3-methyl-N-[2,3,4,5-tetrahydro-2-oxo-1-[[2'-(H-tetrazol-5-yl)[1,1'-biphenyl]-4-yl]methyl]-1H-1-benzazepin-3-yl]butanamide], the Fa in data set [1] (2 mg/kg, powder, 2 mg/kg drug, palmitoyl carnitine chloride 0 mg/kg, β-cyclodextrin 0 mg/kg, read-out: absorption determined as in Example 1 (± standard deviation)) amounted to 0.18 ± 0.26%; in data set [1] (2 mg/kg, powder, 2 mg/kg drug, palmitoyl carnitine chloride 10 mg/kg, β-cyclodextrin 0 mg/kg, read-out: absorption determined as in Example 1 (± standard deviation)) it was 3.3 ± 1.9%; in data set [1] (2 mg/kg, powder, 2 mg/kg drug, palmitoyl carnitine chloride 10 mg/kg, β-cyclodextrin 7.5 mg/kg, read-out: absorption determined as in Example 1 (± standard deviation)), 8.9 ± 7.6%; in data set [1] (2 mg/kg, powder, 2 mg/kg drug, palmitoyl carnitine chloride 10 mg/kg, β-cyclodextrin 15 mg/kg, read-out: absorption determined as in Example 1 (± standard deviation)) it was 14.8 ± 9.8%; in data set [1] (2 mg/kg, tablet of lyophilized formulation containing β-cyclodextrin (15 mg/ml in solution), 2 mg/kg drug, 10 mg/kg palmitoyl carnitine chloride, read-out: percentage absorption), 28.2 ± 18.3%; in data set [1] (spheronized beads, drug:β-cyclodextrin:palmitoyl carnitine chloride:microcrystalline cellulose:starch 2:15:10:15:10, read-out: absorption), 8.8%. Besides, in data set [1] (tablet of lyophilized formulation containing hydroxypropyl-β-cyclodextrin (20 mg/ml in solution), 2 mg/kg drug, 10 mg/kg palmitoyl carnitine chloride, read-out: percentage absorption), the Fa was found to be 7.5 ± 6.2%. Also, the Fa at 3.5 h in data set [2] (palmitoyl carnitine chloride 0 mg/kg, β-cyclodextrin 0 mg/kg) turned out to be 4.98 ± 5.67%; in data set [2] (palmitoyl carnitine chloride 0 mg/kg, β-cyclodextrin 7.5 mg/kg), 3.1 ± 1.59%; in data set [2] (palmitoyl carnitine chloride 0 mg/kg, β-cyclodextrin 15 mg/kg), 12 ± 7.23%; in data set [2] (palmitoyl carnitine chloride 5 mg/kg, β-cyclodextrin 0 mg/kg), 11.9 ± 2.6%; in data set [2] (palmitoyl carnitine chloride 5 mg/kg, β-cyclodextrin 7.5 mg/kg) it was 14 ± 5.4%; in data set [2] (palmitoyl carnitine chloride 5 mg/kg, β-cyclodextrin 15 mg/kg) it was 20.4 ± 15.2%. Also, the Fa at 3.5 h in data set [2] (palmitoyl carnitine chloride 10 mg/kg, β-cyclodextrin 0 mg/kg) was 22.6 ± 13.5%; in data set [2] (palmitoyl carnitine chloride 10 mg/kg, β-cyclodextrin 7.5 mg/kg) it was 29.6 ± 8.2%; in data set [2] (palmitoyl carnitine chloride 10 mg/kg, β-cyclodextrin 15 mg/kg), 49.3 ± 13.4%. Further, the route of excretion result in data set [3] is “excreted almost exclusively unchanged in the bile”. Further, the dose excreted in data set [3] (rat, bile, after an IV dose, read-out: drug found in the bile) worked out at 92%. Also, the AUC at 4 h in data set [4] (dog, blood, absence of β-cyclodextrin, read-out: area under concentration-time curve ± standard deviations (converted)) was 6.02 ng·h/mL. For the same molecule, the area under concentration-time curve ± standard deviations in data set [4] (presence of β-cyclodextrin (7.5 mg/kg)) came to 19.8 ± 8.18 ng·h/mL.
